Experimental data reported in patent publication US20260355171A1, “INHIBITORS AND USES THEREFOR” (priority 2022, published 2026).
Values joined by “and” are separate entries in the source; they are usually repeats but may differ in a detail not shown here. Identical values can stand only once. Like-named read-outs stand apart in the source and are kept apart here.

Assay: Tissue (brain/lung) exposure, IP administration
Format: in vivo, mouse
Settings: for Unbound Brain Parenchyma Concentration, individual / Unbound Plasma Concentration, individual / B:P ratio (brain:plasma), individual / L:P ratio, individual / Unbound B:P ratio (Kp,uu), individual / concentration / Kp at 0.5 h / concentration at 0.5 h / Kp uu at 0.5 h / Kp at 4 h / concentration at 4 h / Kp uu at 4 h / concentration at 24 h: 10 mg/kg; for Kp at 0.5 h / concentration at 0.5 h / Kp uu at 0.5 h / Kp at 4 h / concentration at 4 h / Kp uu at 4 h / concentration at 24 h: mouse, ip
Experimental: For the tissue collection, at 0.5, 4 and 24 h following IP administration, mice were anaesthetised (using gaseous isoflurane). Immediately after the submandibular bleed, mice were killed via cervical dislocation and the whole brain and lung were removed from each carcase. All these tissues were blotted to remove excess blood, placed into pre-weighed polypropylene vials and weighed. Tissue samples were snap frozen in dry ice and subsequently stored frozen at −80 °C until analysis. A summary of the bioanalytical method is included in Table 5.
Tissue: Pre-weighed tissue samples (brain and lung) were homogenised using a gentleMACS™ Octo Dissociator (Miltenyi Biotec, Macquarie Park, Australia) in buffer containing an EDTA/potassium fluoride solution (0.1 M/4 mg/mL) as a stabilisation cocktail to minimise the potential for ex vivo degradation (3 mL cocktail/g tissue). The tissue homogenate was briefly centrifuged (RCF=79×g) for 10 seconds to separate the foam layer before transferring an aliquot of the tissue homogenate (200 μL) to a fresh Eppendorf tube for sample extraction. Calibration standards were prepared by spiking blank brain and lung homogenate (200 μL) with the solution standards (10 μL) and the internal standard (10 μL). Study samples (for all tissue types) were similarly prepared, except that acetonitrile (10 μL) was added instead of solution standards to maintain the same volume. Protein precipitation was carried out by the addition of a 3-fold volume of acetonitrile, followed by vortex mixing and centrifugation (RCF=9391×g) for 3 min to recover the supernatant for analysis.
The concentration of compound 22 in brain or lung parenchyma was calculated on the basis of the measured concentration in brain or lung homogenate, after correcting for the contribution of compound contained within the vascular space of brain or lung samples as follows:
Ctissue=Ctissue homogentate−Ctissue vasculature where Ctissue vasculature=Cplasma×Vp • Ctissue=concentration of compound in brain or lung parenchyma (μM) • Ctissue homogenate=concentration of compound in brain or lung homogenate (μM) • Ctissue vasculature=concentration of compound in brain or lung vasculature (μM) • Cplasma=concentration of compound in plasma (μM)
Vp=brain plasma volume (0.017 mL/g for male C57BL/6 mice; Nicolazzo et al. (2010), Clinical and Experimental Pharmacology and Physiology, 37: 647-649) or lung plasma volume (0.16 mL/g of tissue, Boswell et al. (2014), Molecular Pharmaceutics, 11: 1591-1598)
Concentrations in brain or lung parenchyma were converted from units of ng/g to μM assuming a specific gravity of 1.
For each mouse, the tissue (brain or lung)-to-plasma concentration ratio (based on total concentrations in each matrix) was calculated as: […]
For brain uptake, the unbound brain-to-plasma partition coefficient (based on unbound concentrations in each matrix) was calculated as: […]

[1] = 0.5 h, IP 10 mg/kg, individual mice
[2] = 0.5 h, IP 10 mg/kg, individual mice, 30 min
[3] = 4.0 h, IP 10 mg/kg, individual mice
[4] = 4.0 h, IP 10 mg/kg, individual mice, 240 min

NC(=O)C1CCN(c2ncccc2CNCc2cccc3[nH]ccc23)CC1 [Compound 22]
Unbound Brain Parenchyma Concentration, individual [1]: 0.160 µM and 0.138 µM and 0.169 µM | Unbound Plasma Concentration, individual [1]: 1050 nM and 704 nM and 841 nM | B:P ratio (brain:plasma), individual [2]: 0.23 | L:P ratio, individual [2]: 2.8 and 2.6 | Unbound B:P ratio (Kp,uu), individual [2]: 0.20 | concentration (0.5 h, IP 10 mg/kg, individual mice, 30 min, read-out: Total Brain Parenchyma Concentration, individual): 291 nM | concentration (0.5 h, IP 10 mg/kg, individual mice, 30 min, read-out: Total Lung Parenchyma Concentration, individual): 3560 nM and 4000 nM | concentration (0.5 h, IP 10 mg/kg, individual mice, 30 min, read-out: Total Plasma Concentration, individual): 1290 nM and 1540 nM | Unbound Brain Parenchyma Concentration, mean (0.5 h, IP 10 mg/kg, mean): 0.155 µM | Unbound Plasma Concentration, mean (0.5 h, IP 10 mg/kg, mean): 866 nM | Unbound Brain Parenchyma Concentration, individual [3]: 0.0292 µM and 0.0285 µM | Unbound Plasma Concentration, individual [3]: 4.3 nM and 3.3 nM | B:P ratio (brain:plasma), individual [4]: 9.91 | L:P ratio, individual [4]: 68.6 | Unbound B:P ratio (Kp,uu), individual [4]: 8.59 | concentration (4.0 h, IP 10 mg/kg, individual mice, 240 min, read-out: Total Brain Parenchyma Concentration, individual): 60.1 nM | concentration (4.0 h, IP 10 mg/kg, individual mice, 240 min, read-out: Total Lung Parenchyma Concentration, individual): 416 nM | concentration (4.0 h, IP 10 mg/kg, individual mice, 240 min, read-out: Total Plasma Concentration, individual): 6.1 nM | Unbound Brain Parenchyma Concentration, mean (4.0 h, IP 10 mg/kg, mean): 0.0288 µM | Unbound Plasma Concentration, mean (4.0 h, IP 10 mg/kg, mean): 3.8 nM | Unbound Brain Parenchyma Concentration, individual (24 h, IP 10 mg/kg, individual mice): 0.0060 µM and 0.0005 µM | concentration (24 h, IP 10 mg/kg, individual mice, 1440 min, read-out: Total Lung Parenchyma Concentration, individual): 2.5 nM and 1.6 nM and 0.7 nM | Apparent tissue-to-plasma ratio (B:P or L:P) at 4 h versus 0.5 h (IP 10 mg/kg): substantially higher than that at 0.5 h | Duration of measurable concentrations in brain (IP 10 mg/kg): ≤ 4 h | Duration of measurable concentrations in lung (IP 10 mg/kg): up to 24 hours | Unbound Brain Parenchyma Concentration, mean (IP 10 mg/kg, mean): 0.0033 µM | Kp at 0.5 h (brain, 0.5 h, individual mice, read-out: B:P ratio (brain:plasma), individual): 0.18 | concentration at 0.5 h (brain, 0.5 h, individual mice, read-out: Total Brain Parenchyma Concentration, individual): 337 nM | Kp uu at 0.5 h (brain, 0.5 h, individual mice, read-out: Unbound B:P ratio (Kp,uu), individual): 0.15 | Kp at 0.5 h (brain, 0.5 h, mean, read-out: B:P ratio (brain:plasma), mean): 0.21 | concentration at 0.5 h (brain, 0.5 h, mean, read-out: Total Brain Parenchyma Concentration, mean): 328 nM | Kp uu at 0.5 h (brain, 0.5 h, mean, read-out: Unbound B:P ratio (Kp,uu), mean): 0.18 | Kp at 4 h (brain, 4.0 h, individual mice, read-out: B:P ratio (brain:plasma), individual): 7.9 | concentration at 4 h (brain, 4.0 h, individual mice, read-out: Total Brain Parenchyma Concentration, individual): 61.6 nM | Kp uu at 4 h (brain, 4.0 h, individual mice, read-out: Unbound B:P ratio (Kp,uu), individual): 6.84 | concentration at 4 h (brain, 4.0 h, mean, mouse 16 excluded, read-out: Total Brain Parenchyma Concentration, mean): 60.9 nM | Kp at 4 h (brain, 4.0 h, mean, read-out: B:P ratio (brain:plasma), mean): 8.9 | Kp uu at 4 h (brain, 4.0 h, mean, read-out: Unbound B:P ratio (Kp,uu), mean): 7.72 | concentration at 24 h (brain, 24 h, mean, read-out: Total Brain Parenchyma Concentration, mean): 6.9 nM | Kp at 0.5 h (lung, 0.5 h, individual mice, read-out: L:P ratio, individual): 2 | concentration at 0.5 h (lung, 0.5 h, individual mice, read-out: Total Lung Parenchyma Concentration, individual): 3830 nM | Kp at 0.5 h (lung, 0.5 h, mean, read-out: L:P ratio, mean): 2.5 | concentration at 0.5 h (lung, 0.5 h, mean, read-out: Total Lung Parenchyma Concentration, mean): 3800 nM | Kp at 4 h (lung, 4.0 h, individual mice, read-out: L:P ratio, individual): 45.7 | concentration at 4 h (lung, 4.0 h, individual mice, read-out: Total Lung Parenchyma Concentration, individual): 356 nM | concentration at 4 h (lung, 4.0 h, mean, mouse 16 excluded, read-out: Total Lung Parenchyma Concentration, mean): 386 nM | Kp at 4 h (lung, 4.0 h, mean, read-out: L:P ratio, mean): 57.1 | concentration at 24 h (lung, 24 h, mean, read-out: Total Lung Parenchyma Concentration, mean): 2.1 nM | concentration at 0.5 h (plasma, 0.5 h, individual mice, read-out: Total Plasma Concentration, individual): 1920 nM | concentration at 0.5 h (plasma, 0.5 h, mean, read-out: Total Plasma Concentration, mean): 1580 nM | concentration at 4 h (plasma, 4.0 h, individual mice, read-out: Total Plasma Concentration, individual): 7.8 nM | concentration at 4 h (plasma, 4.0 h, mean, mouse 16 excluded, read-out: Total Plasma Concentration, mean): 6.9 nM
